The source of these data is ChEMBL document CHEMBL1153960, “Syntheses of novel high affinity ligands for opioid receptors” (Bioorg Med Chem Lett, 2009).

Test [1] deals with T1, Mu-type opioid receptor (Homo sapiens, UniProt P35372). The experiment in a line: biochemical.
Test [2] concerns the target T2, Delta-type opioid receptor (Homo sapiens, UniProt P41143). The experiment in a line: biochemical.
For test [3], the target named is T3, Kappa-type opioid receptor (Homo sapiens, UniProt P41145). The experiment in a line: Displacement of [3H]U69,593 from human kappa opioid receptor expressed in CHO cells after 60 mins by scintillation counting.
Test [4] concerns the target T3, Kappa-type opioid receptor. The experiment in a line: Agonist activity at human kappa opioid receptor expressed in CHO cells assessed as stimulation of [35S]GTPgammaS binding. In general terms: GTPγS resists hydrolysis and so accumulates on activated G proteins.
Test [5] addresses T1, Mu-type opioid receptor. The experiment in a line: biochemical. This is another data set of the same source.
Description: Agonist activity at human mu opioid receptor expressed in CHO cells assessed as stimulation of [35S]GTPgammaS binding
In test [6] the target is T2, Delta-type opioid receptor. The experiment in a line: biochemical. This is another data set of the same source.
Test [7] addresses T3, Kappa-type opioid receptor. The experiment in a line: Antagonist activity against human kappa opioid receptor expressed in CHO cells assessed as inhibition of U50488-stimulated [35S]GTPgammaS binding.
Test [8] has as its target T1, Mu-type opioid receptor. The experiment in a line: biochemical. The source holds these as a separate data set.
Test [9] concerns the target T3, Kappa-type opioid receptor. Particulars: CHO, 10 uM.
For test [10], the target named is T1, Mu-type opioid receptor. Particulars: CHO, 10 uM.
Test [11] concerns the target T2, Delta-type opioid receptor. The experiment in a line: biochemical. This is another data set of the same source.
Description: Agonist activity at human delta opioid receptor expressed in CHO cells assessed as stimulation of [35S]GTPgammaS binding

T3 sequence (P41145 whole entry): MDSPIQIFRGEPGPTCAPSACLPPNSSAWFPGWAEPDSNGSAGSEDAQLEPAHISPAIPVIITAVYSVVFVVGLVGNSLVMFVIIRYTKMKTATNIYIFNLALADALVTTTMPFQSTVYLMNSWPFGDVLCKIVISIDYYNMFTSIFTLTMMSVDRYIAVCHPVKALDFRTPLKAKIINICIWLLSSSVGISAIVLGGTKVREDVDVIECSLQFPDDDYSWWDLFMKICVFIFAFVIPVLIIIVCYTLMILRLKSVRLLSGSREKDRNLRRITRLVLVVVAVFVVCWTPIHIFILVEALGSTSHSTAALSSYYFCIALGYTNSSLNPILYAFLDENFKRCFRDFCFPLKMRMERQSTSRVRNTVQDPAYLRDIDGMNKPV
T1 sequence (P35372 whole entry): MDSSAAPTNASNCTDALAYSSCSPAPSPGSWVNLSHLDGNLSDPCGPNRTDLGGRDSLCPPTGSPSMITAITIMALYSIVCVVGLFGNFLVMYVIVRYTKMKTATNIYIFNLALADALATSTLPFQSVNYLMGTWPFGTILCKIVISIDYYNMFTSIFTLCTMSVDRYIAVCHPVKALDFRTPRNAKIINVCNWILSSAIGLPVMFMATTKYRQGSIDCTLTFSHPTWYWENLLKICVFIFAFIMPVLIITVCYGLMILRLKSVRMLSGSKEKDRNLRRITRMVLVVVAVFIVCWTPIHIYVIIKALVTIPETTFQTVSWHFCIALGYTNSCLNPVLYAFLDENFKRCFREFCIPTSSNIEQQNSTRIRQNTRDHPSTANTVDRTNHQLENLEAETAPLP
T2 sequence (P41143 whole entry): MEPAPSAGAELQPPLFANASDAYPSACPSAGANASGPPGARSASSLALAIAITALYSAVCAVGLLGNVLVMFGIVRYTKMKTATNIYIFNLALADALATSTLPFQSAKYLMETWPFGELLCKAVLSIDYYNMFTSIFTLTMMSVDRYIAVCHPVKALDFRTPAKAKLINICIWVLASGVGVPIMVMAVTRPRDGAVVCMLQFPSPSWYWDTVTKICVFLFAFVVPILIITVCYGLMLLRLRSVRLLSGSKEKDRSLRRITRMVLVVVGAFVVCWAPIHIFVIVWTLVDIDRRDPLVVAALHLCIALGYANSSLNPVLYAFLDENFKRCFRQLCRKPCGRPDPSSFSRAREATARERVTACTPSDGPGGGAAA

As to `C[N+]1(CC2CC2)CC[C@]23c4c5ccc(C(N)=O)c4O[C@H]2C(=O)CC[C@@]3(O)[C@H]1C5` (stereo partly specified), the Ki (usually the dissociation constant of the complex between target and ligand, obtained from inhibition or displacement) was 37 nM on Mu-type opioid receptor [1] and greater than 10000 nM in test [2].
`CN1CC[C@]23CC(=O)CC[C@H]2[C@H]1Cc1ccc(C(N)=O)c(O)c13`: the results for the Ki (at Mu-type opioid receptor [1]; in test [2]; in test [3]) were 0.3 nM, 8.3 nM and 2.3 nM, respectively. Further, the EC50 (as a rule, the midpoint of the concentration-response curve) in test [4] came to 3.9 nM; on Mu-type opioid receptor [5], 1.6 nM.
As for `NC(=O)c1ccc2c(c1O)[C@]13CCN(CC4CC4)[C@H](C2)[C@]1(O)Cc1c([nH]c2ccccc12)C3`, the Ki on Mu-type opioid receptor [1] was 0.51 nM; in test [2], 0.025 nM; in test [3], 0.81 nM. Besides, the figures for the IC50 in test [6] and in test [7] were 0.08 nM and 28 nM, respectively.
For the compound `C[N+]1(CC2CC2)CC[C@]23c4c5ccc(O)c4O[C@H]2C(=O)CC[C@@]3(O)[C@H]1C5` (stereo partly specified) [NALTREXONE METHIODIDE], the IC50 – broadly, the concentration that gives 50% inhibition – against Mu-type opioid receptor [8] was determined as 170 nM. Also, the EC50 in test [4] worked out at 9 nM. The same compound came in with an Imax in test [9] of 60%.
For the compound `Oc1ccc2c3c1O[C@H]1CCC[C@@]4(O)[C@@H](C2)N(CC2CC2)CC[C@]314`, the Ki is 0.24 nM on Mu-type opioid receptor [1], 79 nM in test [2] and 0.24 nM in [3]. The 50% inhibitory concentration (IC50) came out at 4.4 nM against Mu-type opioid receptor [8] and 13 nM in test [7].
In the case of `NC(=O)c1ccc2c3c1O[C@H]1[C@@H](O)CC[C@@]4(O)[C@@H](C2)N(CC2CCC2)CC[C@]314`, at Mu-type opioid receptor [10], the Imax worked out at 56%.
`NC(=O)c1ccc2c(c1O)[C@@]13CCCC[C@@]1(O)[C@@H](C2)N(CC1CC1)CC3`: the EC50 in test [4] was found to be 2.3 nM. Moreover, the values for the IC50 in test [6] and in test [7] were 5.8 nM and 57 nM, respectively.
In the case of `NC(=O)c1ccc2c3c1O[C@H]1c4[nH]c5ccccc5c4C[C@@]4(O)[C@@H](C2)N(CC2CC2)CC[C@]314`, the Ki on Mu-type opioid receptor [1] came out at 46 nM; in test [2], 0.3 nM; in [3] it was 47 nM. This compound also returned an IC50 in test [6] of 0.77 nM.
As to `NC(=O)c1ccc2c3c1O[C@H]1CCC[C@@]4(O)[C@@H](C2)N(CC2CC2)CC[C@]314`, the Ki at Mu-type opioid receptor [1] worked out at 2.5 nM; in test [2], 630 nM; in [3] it was 16 nM. Besides, the IC50 on Mu-type opioid receptor [8] came out at 54 nM.
At Mu-type opioid receptor [8], `NC(=O)c1ccc2c3c1O[C@H]1C(=O)CC[C@@]4(O)[C@@H](C2)N(CC2CC2)CC[C@]314` displayed an IC50 of 270 nM. The compound further showed an EC50 on Mu-type opioid receptor [5] of 4.9 nM.
On to `NC(=O)c1ccc2c(c1O)[C@]13CCN(CC4CC4)[C@H](C2)[C@]1(O)CCC(=O)C3`, for which the IC50 against Mu-type opioid receptor [8] was 0.88 nM; in test [6], 6.9 nM; in test [7] it was 38 nM. Further, the EC50 was 3.3 nM in test [4] and 1.8 nM in test [11].
For the compound `NC(=O)c1ccc2c(c1O)[C@]13CCN(CC4CCC4)[C@H](C2)[C@]1(O)CC[C@@H](O)C3`, a half-maximal effect in test [11] (EC50) was put at 3.7 nM. Further, in [9], the Imax was found to be 25%. In addition, in [6], inhibition was half-maximal at 130 nM (IC50).
For the compound `CN1CC[C@]23c4c5ccc(C(N)=O)c4O[C@H]2C(=O)CC[C@H]3[C@H]1C5`, the Ki amounted to 1.2 nM on Mu-type opioid receptor [1] and 260 nM in test [2]. On Mu-type opioid receptor [5], this compound displayed an EC50 of 110 nM.
Regarding `NC(=O)c1ccc2c(c1O)[C@]13CCN(CC4CCC4)[C@H](C2)[C@]1(O)CC[C@H](O)C3`, the Imax in [9] was found to be 36%.
